Experimental data: patent publication US20050031597A1, “Cells and improved method for preserving cells” (priority 2003, published 2005)

Assays:
[1] = tested on: platelets; assay: Stability of platelets during incubation (microscopy, flow cytometric analysis); type: cell-based, human
Procedure: The stability of the platelets during a 4 hours incubation period was studied using microscopy and flow cytometric analysis. […] No signs of microvesicle formation could be observed after 4 hours incubation, as can be judged by the stable relative proportion of microvesicle gated cells (less than 3%). The formation of microvesicles is usually considered as the first sign of platelet activation (Owners et al., Trans. Med. Rev., 8, 27-44, 1994). Characteristic antigens of platelet activation include: glycoprotein 53 (gp53, a lysosomal membrane marker), PECAM-1 (platelet endothelial cell adhesion molecule-1, an alpha granule constituent), and P-selection (an alpha granule membrane protein).

[2] = tested on: human erythrocytic cells; assay: Trehalose uptake by erythrocytic cells (anthrone assay, HPLC); type: cell-based
Procedure: FIG. 5 graphically illustrates the loading efficiency of trehalose into human erythrocytic cells as a function of external trehalose concentration at respective temperatures of 4° C. and 37° C. Erythrocytic cells were exposed to trehalose for 18 hours at either 4° C. or 37° C. The trehalose concentration in the incubation medium varied between 230 mM and 1000 mM. Each incubation buffer contained trehalose (between 230 mM and 1000 mM) and 100 mOsm PBS pH 7.2. Increase in the trehalose concentration in the loading medium results in an increase in the sugar uptake, reaching about 100 mM cytoplasmic trehalose in erythrocytes incubated in 1000 mM trehalose and 100 mOsm PBS. At 4° C., the uptake was very limited, being about 25 mM. The trehalose intake was measured using anthrone assay and confirmed by high performance liquid chromatography. It is clear that there was substantial loading at 37° C., but not at 4° C. Furthermore, trehalose loading was not significant unless the extracellular cellular trehalose concentration gives a hyperosmotic pressure.
FIG. 7 graphically illustrates trehalose uptake (i.e., intracellular trehalose mM) and hemolysis (i.e., % hemolysis) as a function of incubation temperature (° C.). The incubation temperature was varied between 4° C. and 37° C. […] Between 4° C. and 30° C., the cytoplasmic trehalose was very low (between 1 and 4 mM).
100 mOsm ADSOL contains 24 mM glucose, 0.43 mM adenine, 33.3 mM NaCl and 8.9 mM mannitol. Four different temperatures of incubation were used: 4° C., 23° C., 37° C. and 41° C. […] At 23° C., the uptake was higher than at 4° C. and increased with increase of the time of incubation reaching 22 mM intracellular trehalose. At 37° C., the highest uptake of trehalose by the erythrocytic cells was observed within 16 hours (60 mM). At 41° C., the uptake was slightly higher than that observed at 37° C. within 6 hours.

[3] = tested on: erythrocytic cells; assay: Percent hemolysis of erythrocytic cells during loading or incubation; type: cell-based; settings: for percent hemolysis: 800 mM trehalose, 100 mOsm ADSOL, 6.6 mM K-phosphate
Procedure: FIG. 9 graphically illustrates % hemolysis of loaded cells as a function of time (hours) of incubation in 300 mOsm PBS pH 7.2. The erythrocytic cells were loaded in 700 mM trehalose in 100 mOsm PBS pH 7.2 at 35° C. for 16 hours. After the loading step, the cells were incubated in 300 mOsm PBS pH 7.2 between 1 and 25 hours. This buffer was used for washing the loaded cells and it was important to determine the stability of the loaded cells when they were suspended in this buffer. Cell stability was assessed by measuring the percent hemolysis over the course of 25 hours. […] Between 7 and 25 hours, there was only a small change in the percent hemolysis (from about 25% to about 30%).
FIG. 10 graphically illustrates time course (incubation time, hours) of hemolysis(%) of trehalose-loaded cells as a function of the composition of the incubation buffer. Erythrocytic cells were loaded in 700 mM trehalose in 100 mOsm PBS pH 7.2 for 16 hours at 35° C. They were washed with 300 mOsm PBS pH 7.2 and were subsequently transferred to storage media with increasing trehalose concentrations (between 100 mM and 300 mM trehalose) added to 100 mOsm PBS pH 7.2. The percent hemolysis was measured over the course of 3 hours. […]
At 23° C., the percent hemolysis increases to 7% during 6 hours of incubation. At 37° C., between 10 and 12% hemolysis is observed during incubation of erythrocytic cells between 6 and 9 hours. […] Such intracellular concentration of trehalose provides high survival of erythrocytic cells after freeze-drying and rehydration, therefore these conditions (incubation in trehalose medium between 6 and 9 hours at 37° C.) can be used for loading erythrocytic cells.

[4] = tested on: erythrocytic cells; assay: Osmotic fragility index of trehalose-loaded erythrocytic cells; type: cell-based
Procedure: FIG. 6 graphically illustrates the fragility index of erythrocytic cells incubated overnight at respective temperatures of 4° C. and 37° C. in the presence of and as a function of increasing intracellular trehalose concentrations. The osmotic fragility index was generated by the extent of hemolysis as a function of the NaCl concentration. The erythrocytic cells that had been loaded in trehalose solutions (between 250 mM and 1000 mM) in 100 mOsm PBS were suspended in increasing concentrations of NaCl (between 50 and 600 mOsm NaCl). The percent hemolysis measured after resuspending the loaded cells in NaCl represents the fragility index.

[5] = tested on: erythrocytic cells; assay: Mean corpuscular hemoglobin of trehalose-loaded, freeze-dried and rehydrated erythrocytic cells; type: cell-based
Procedure: The cells had been loaded in media with different trehalose concentration (400 mM trehalose, 500 mM trehalose, 600 mM trehalose, 700 mM trehalose and 800 mm trehalose) in 100 mOsm PBS pH 7.2. The cells were freeze-dried in 300 mM trehalose in 100 mOsm PBS, 15% HES and 2.54% HSA and rehydrated in a buffer containing 188 mM trehalose, 15% HES and 2.5% HSA.

[6] = tested on: erythrocytic cells; assay: Percent hemolysis of erythrocytic cells during loading or incubation; type: cell-based; settings: 800 mM trehalose, 100 mOsm ADSOL, 6.6 mM Na-phosphate; 38-41° C., 6 hours
[7] = about 37° C., about nine(9) hours

OC[C@H]1O[C@H](O[C@H]2O[C@H](CO)[C@@H](O)[C@H](O)[C@H]2O)[C@H](O)[C@@H](O)[C@@H]1O [trehalose]
platelet morphology ([1]; 4 hours incubation at 37° C., 25 mM external trehalose): No morphological changes
platelet morphology ([1]; 4 hours incubation in 75 mM trehalose): swollen
relative proportion of microvesicle gated cells ([1]; after 4 hours incubation): less than 3%
intracellular trehalose ([2]; 800 mM trehalose, 100 mOsm ADSOL, 6.6 mM K-phosphate, 4° C., 16 hours): 10 mM
intracellular trehalose ([2]; 800 mM trehalose, 100 mOsm ADSOL, 6.6 mM K-phosphate, 23° C.): 22 mM
intracellular trehalose ([2]; 800 mM trehalose, 100 mOsm ADSOL, 6.6 mM K-phosphate, 37° C., within 16 hours): 60 mM
cytoplasmic trehalose ([2]; 800 mM trehalose, 100 mOsm ADSOL, 6.6 mM K-phosphate, nine(9) hours at 4° C.): about 10 mM
cytoplasmic trehalose ([2]; 800 mM trehalose, 100 mOsm ADSOL, 6.6 mM K-phosphate, nine(9) hours at 23° C.): about 22 mM
cytoplasmic trehalose ([2]; 800 mM trehalose, 100 mOsm ADSOL, 6.6 mM K-phosphate, nine(9) hours at 37° C.): about 60 mM
cytoplasmic trehalose ([2]; 6 hours in 800 mM trehalose in 100 mOsm PBS pH 7.2, 37° C.): up to 35 mM
cytoplasmic trehalose uptake ([2]; 18 hours, 4° C.): about 25 mM
cytoplasmic trehalose ([2]; 18 hours, 37° C., 1000 mM trehalose and 100 mOsm PBS): about 100 mM
trehalose (mM) to incubation (hours) loading gradient ([2]; about 23° C.): about 0.75
trehalose (mM) to incubation (hours) loading gradient [2, 7]: about 1.25
intracellular trehalose ([2]; loaded in 400 mM trehalose in 100 mOsm PBS at 35° C. for 16 hours): 3 mM
intracellular trehalose ([2]; loaded in 800 mM trehalose in 100 mOsm PBS at 35° C. for 16 hours): 60 mM
trehalose left in the cells after freeze-drying ([2]; loaded in 800 mM trehalose/100 mOsm PBS 16 hours about 35° C., washed, freeze-dried): about 75 mM
percent hemolysis ([3]; 23° C., 6 hours): 7%
percent hemolysis ([3]; 23° C., nine(9) hours): about 7%
percent hemolysis ([3]; 37° C., nine(9) hours): about 12%
hemolysis (%) to incubation (hours) hemolysis gradient ([3]; about 23° C.): about 0.38
hemolysis (%) to incubation (hours) hemolysis gradient [3, 7]: about 0.25
percent hemolysis of trehalose-loaded cells ([3]; loaded in 700 mM trehalose/100 mOsm PBS 35° C. 16 hours, start of incubation in 300 mOsm PBS pH 7.2): about 7%
percent hemolysis of trehalose-loaded cells ([3]; loaded in 700 mM trehalose/100 mOsm PBS, 7 hours in 300 mOsm PBS pH 7.2): about 25%
percent hemolysis of trehalose-loaded cells ([3]; loaded in 700 mM trehalose/100 mOsm PBS, 25 hours in 300 mOsm PBS pH 7.2): about 30%
percent hemolysis of trehalose-loaded cells ([3]; storage medium 300 mM trehalose in 100 mOsm PBS, over the course of 3 hours): about 4%
osmotic fragility ([4]; 1000 mM trehalose in 100 mOsm PBS at 37° C.): unstable
osmotic fragility ([4]; trehalose media between 250 mM and 800 mM in 100 mOsm PBS, 37° C. and 4° C.): stable osmotically
mean corpuscular hemoglobin in rehydrated cells ([5]; cells loaded in 400 mM trehalose): about 7 pg
mean corpuscular hemoglobin in rehydrated cells ([5]; cells loaded in 800 mM trehalose): about 14 pg
MCH ([5]; intracellular trehalose about 40 mM to about 42 mM): about 9 pg
MCH ([5]; intracellular trehalose about 60 mM): greater than 14 pg
extent of hemolysis during loading [6]: about 17%
